According to BigSolDB 2.1:

Brc1cn[nH]c1
solubility (mole fraction)
Settings | in ethanol | in methanol | in water
283.15 K | 0.265 | 0.203 | 0.0048
285.65 K | 0.275 | 0.218 | 0.00501
288.15 K | 0.287 | 0.234 | 0.00532
290.65 K | 0.299 | 0.252 | 0.00562
293.15 K | 0.311 | 0.27 | 0.00591
295.65 K | 0.325 | 0.292 | 0.00623
298.15 K | 0.339 | 0.312 | 0.0066
300.65 K | 0.354 | 0.333 | 0.00696
303.15 K | 0.372 | 0.355 | 0.00733
305.65 K | 0.39 | 0.379 | 0.00772
308.15 K | 0.409 | 0.402 | 0.00809
310.65 K | 0.431 | 0.426 | 0.00848
313.15 K | 0.457 | 0.452 | 0.00895
315.65 K | 0.481 | 0.479 | 0.00941
318.15 K | 0.506 | 0.503 | 0.00987
